Laboratory results as given in US4336375A, “Cephalosporanic acid derivatives” (American Cyanamid Company, priority 1980, dated 1982).
Values after ≈ are worked out from the molar mass of the structure shown. Like-named read-outs stand apart in the source and are kept apart here.

Columns and labels:
Format in all cases: cell-based
Escherichia coli 311 = test: In vitro MIC, agar dilution, Escherichia coli 311; settings: 35° C., 18 hours, nutrient agar, read-out: Minimal Inhibitory Concentration
Procedure: (§1) The in vitro activity of representative compounds of the present invention are given in the following Table I in terms of minimal inhibitory concentration. The test used was the standard agar dilution test using a Steers multiple inocula replicator and incubating at 35° C. for 18 hours in conventional nutrient agar.

Serratia K101 = test: In vitro MIC, agar dilution, Serratia K101; settings: Serratia K101; agar dilution, 35° C., 18 hours, nutrient agar; read-out: Minimal Inhibitory Concentration
Procedure: as §1

[1] = system: Klebsiella pneumoniae MA75-1; test: In vitro MIC, agar dilution, Klebsiella pneumoniae MA75-1; settings: MA751; Klebsiella pneumoniae MA75-1; agar dilution, 35° C., 18 hours, nutrient agar; read-out: Minimal Inhibitory Concentration
Procedure: as §1

Klebsiella pneumoniae AD = test: In vitro MIC, agar dilution, Klebsiella pneumoniae AD; settings: Klebsiella pneumoniae AD; agar dilution, 35° C., 18 hours, nutrient agar; read-out: Minimal Inhibitory Concentration
Procedure: as §1

[2] = system: Enterobacter cloacae MA75-1; test: In vitro MIC, agar dilution, Enterobacter cloacae MA75-1; settings: MA751; Enterobacter cloacae MA75-1; agar dilution, 35° C., 18 hours, nutrient agar; read-out: Minimal Inhibitory Concentration
Procedure: as §1

Proteus morganii K72 = test: In vitro MIC, agar dilution, Proteus morganii K72; settings: Morganella morganii; Proteus morganii K72; agar dilution, 35° C., 18 hours, nutrient agar; read-out: Minimal Inhibitory Concentration
Procedure: as §1

Enterococcus SM77-15 = test: In vitro MIC, agar dilution, Enterococcus SM77-15; settings: SM7715; Enterococcus SM77-15; agar dilution, 35° C., 18 hours, nutrient agar; read-out: Minimal Inhibitory Concentration
Procedure: as §1

[3] = system: Enterobacter cloacae OSU75-2; test: In vitro MIC, agar dilution, Enterobacter cloacae OSU75-2; settings: OSU752; Enterobacter cloacae OSU75-2; agar dilution, 35° C., 18 hours, nutrient agar; read-out: Minimal Inhibitory Concentration
Procedure: as §1

Proteus rettgeri N76-1 = test: In vitro MIC, agar dilution, Proteus rettgeri N76-1; settings: Providencia rettgeri, N761; Proteus rettgeri N76-1; agar dilution, 35° C., 18 hours, nutrient agar; read-out: Minimal Inhibitory Concentration
Procedure: as §1

[4] = system: Klebsiella pneumoniae W75-4; test: In vitro MIC, agar dilution, Klebsiella pneumoniae W75-4; settings: W754; Klebsiella pneumoniae W75-4; agar dilution, 35° C., 18 hours, nutrient agar; read-out: Minimal Inhibitory Concentration
Procedure: as §1

Escherichia coli OSU75-1 = test: In vitro MIC, agar dilution, Escherichia coli OSU75-1; settings: OSU751, 35° C., 18 hours, nutrient agar, read-out: Minimal Inhibitory Concentration
Procedure: as §1

[5] = system: Klebsiella pneumoniae UR76-1; test: In vitro MIC, agar dilution, Klebsiella pneumoniae UR76-1; settings: UR761; Klebsiella pneumoniae UR76-1; agar dilution, 35° C., 18 hours, nutrient agar; read-out: Minimal Inhibitory Concentration
Procedure: as §1

[6] = system: Staphylococcus aureus Q74-1; test: In vitro MIC, agar dilution, Staphylococcus aureus Q74-1; settings: Q741; Staphylococcus aureus Q74-1; agar dilution, 35° C., 18 hours, nutrient agar; read-out: Minimal Inhibitory Concentration
Procedure: as §1

[7] = system: Escherichia coli ESS22-31; test: In vitro MIC, agar dilution, Escherichia coli ESS22-31; settings: read-out: Minimal Inhibitory Concentration
Procedure: as §1

[8] = system: Klebsiella pneumoniae W75-2; test: In vitro MIC, agar dilution, Klebsiella pneumoniae W75-2; settings: W752; Klebsiella pneumoniae W75-2; agar dilution, 35° C., 18 hours, nutrient agar; read-out: Minimal Inhibitory Concentration
Procedure: as §1

[9] = system: Pseudomonas aeruginosa UCS 76-13; test: In vitro MIC, agar dilution, Pseudomonas aeruginosa UCS 76-13; settings: UCS7613; Pseudomonas aeruginosa UCS 76-13; agar dilution, 35° C., 18 hours, nutrient agar; read-out: Minimal Inhibitory Concentration
Procedure: as §1

[10] = system: Staphylococcus aureus Q74-6; test: In vitro MIC, agar dilution, Staphylococcus aureus Q74-6; settings: Q746; Staphylococcus aureus Q74-6; agar dilution, 35° C., 18 hours, nutrient agar; read-out: Minimal Inhibitory Concentration
Procedure: as §1

[11] = system: Pseudomonas aeruginosa G236; test: In vitro MIC, agar dilution, Pseudomonas aeruginosa G236; settings: read-out: Minimal Inhibitory Concentration
Procedure: as §1

[12] = system: Enterobacter aerogenes UR76-3; test: In vitro MIC, agar dilution, Enterobacter aerogenes UR76-3; settings: Klebsiella aerogenes, UR763; Enterobacter aerogenes UR76-3; agar dilution, 35° C., 18 hours, nutrient agar; read-out: Minimal Inhibitory Concentration
Procedure: as §1

Serratia marcens K77-1 = test: In vitro MIC, agar dilution, Serratia marcens K77-1; settings: K771; Serratia marcens K77-1; agar dilution, 35° C., 18 hours, nutrient agar; read-out: Minimal Inhibitory Concentration
Procedure: as §1

Serratia marcens QHC77-2 = test: In vitro MIC, agar dilution, Serratia marcens QHC77-2; settings: QHC772; Serratia marcens QHC77-2; agar dilution, 35° C., 18 hours, nutrient agar; read-out: Minimal Inhibitory Concentration
Procedure: as §1

Escherichia coli W75-1 = test: In vitro MIC, agar dilution, Escherichia coli W75-1; settings: W751, 35° C., 18 hours, nutrient agar, read-out: Minimal Inhibitory Concentration
Procedure: as §1

[13] = system: Pseudomonas aeruginosa PD05141; test: In vitro MIC, agar dilution, Pseudomonas aeruginosa PD05141; settings: Pseudomonas aeruginosa PD05141; agar dilution, 35° C., 18 hours, nutrient agar; read-out: Minimal Inhibitory Concentration
Procedure: as §1

[14] = system: Pseudomonas aeruginosa 12-4-4; test: In vitro MIC, agar dilution, Pseudomonas aeruginosa 12-4-4; settings: 1244; Pseudomonas aeruginosa 12-4-4; agar dilution, 35° C., 18 hours, nutrient agar; read-out: Minimal Inhibitory Concentration
Procedure: as §1

Proteus vulgaris N74-1 = test: In vitro MIC, agar dilution, Proteus vulgaris N74-1; settings: N741, 35° C., 18 hours, nutrient agar, read-out: Minimal Inhibitory Concentration
Procedure: as §1

Row | Compound | MIC (Escherichia coli 311) [µg/mL] | MIC (Serratia K101) [µg/mL] | MIC [1] [µg/mL] | MIC (Klebsiella pneumoniae AD) [µg/mL] | MIC [2] [µg/mL] | MIC (Proteus morganii K72) [µg/mL] | MIC (Enterococcus SM77-15) [µg/mL] | MIC [3] [µg/mL] | MIC (Proteus rettgeri N76-1) [µg/mL] | MIC [4] [µg/mL] | MIC (Escherichia coli OSU75-1) [µg/mL] | MIC [5] [µg/mL] | MIC [6] [µg/mL] | MIC [8] [µg/mL] | MIC [9] [µg/mL] | MIC [10] [µg/mL] | MIC [12] [µg/mL] | MIC (Serratia marcens K77-1) [µg/mL] | MIC (Serratia marcens QHC77-2) [µg/mL] | MIC (Escherichia coli W75-1) [µg/mL] | other results
1 | Nn1c(SCC2=C(C(=O)O)N3C(=O)C(NC(=O)Cc4cccs4)[C@H]3SC2)nnc1-n1cccn1 (stereo partly shown) [Compound IV, 7[2-(2-Thienyl)acetamido]-3-[4-amino-5-(1-pyrazolyl)-1,2,4-triazol-3-ylthiomethyl]-3-cephem-4-carboxylic acid] | 4 (≈ 7.71 µM) | > 128 | 2 (≈ 3.86 µM) | 4 (≈ 7.71 µM) | > 128 | > 128 | 32 (≈ 61.7 µM) | > 128 | > 128 | 16 (≈ 30.9 µM) | 4 (≈ 7.71 µM) | > 128 | ≤ 0.12 | 2 (≈ 3.86 µM) | > 128 | 0.25 (≈ 0.482 µM) | 1 (≈ 1.93 µM) | > 128 | > 128 | 8 (≈ 15.4 µM) | MIC ([7]; ESS2231, Escherichia coli ESS22-31, agar dilution, 35° C., 18 hours, nutrient agar): ≤ 0.06 µg/mL; MIC ([11]; Pseudomonas aeruginosa, G236, 18 h): > 128 µg/mL; MIC [13]: > 128 µg/mL; MIC [14]: > 128 µg/mL
2 | N[C@@H](C(=O)NC1C(=O)N2C(C(=O)O)=C(CSc3n[nH]c(-n4cccn4)n3)CS[C@H]12)c1ccccc1.O=C(O)C(F)(F)F (stereo partly drawn) [Compound IX, 7-(D-2-Amino-2-phenylacetamido)-3-[5-(1-pyrazolyl)-1,2,4-triazol-3-ylthiomethyl]-3-cephem-4-carboxylic acid, trifluoroacetate salt] | 16 | > 128 | 16 | 8 | > 128 | > 128 | > 128 | > 128 | > 128 | 32 | 16 | > 128 | 4 | 32 | > 128 | 1 | 16 | > 128 | > 128 | 16 | MIC (Proteus vulgaris N74-1): > 128 µg/mL; MIC ([7]; Escherichia coli, ESS2231, 18 h): ≤ 0.12 µg/mL; MIC ([11]; Pseudomonas aeruginosa G236, agar dilution, 35° C., 18 hours, nutrient agar): > 128 µg/mL; MIC [13]: > 128 µg/mL; MIC [14]: > 128 µg/mL
